Where a name gives a salt, the structure may show the parent alone. Read-outs that look alike come from different tables or passages of the source.
How the values were obtained:
human 5-HT1A receptors = biological target: T1, human 5-HT1A receptors (Homo sapiens, UniProt P08908); assay: [3H] 8-OH-DPAT displacement from 5-HT1A receptor; format: binding; conditions: CHO cells stably transfected with human 5-HT1A receptors, read-out: 5-HT1A Receptor Affinity KI
T1 construct: expressed in transfected cells; host or cells: CHO cells
T1 sequence (P08908 1-422): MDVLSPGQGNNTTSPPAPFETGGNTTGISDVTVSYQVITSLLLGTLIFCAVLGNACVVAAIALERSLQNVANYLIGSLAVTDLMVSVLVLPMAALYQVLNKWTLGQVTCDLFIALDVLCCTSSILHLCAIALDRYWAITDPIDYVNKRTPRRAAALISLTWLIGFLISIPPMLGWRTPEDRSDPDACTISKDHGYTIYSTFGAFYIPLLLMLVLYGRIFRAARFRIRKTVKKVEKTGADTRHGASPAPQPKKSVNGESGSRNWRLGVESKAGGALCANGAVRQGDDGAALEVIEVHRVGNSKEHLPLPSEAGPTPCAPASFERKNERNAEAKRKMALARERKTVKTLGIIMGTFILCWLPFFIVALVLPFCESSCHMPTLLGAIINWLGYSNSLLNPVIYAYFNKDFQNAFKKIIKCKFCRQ
Text: High affinity for the serotonin 5-HT1A receptor was established by testing the claimed compound's ability to displace [^3H] 8-OH-DPAT (dipropylaminotetralin) from the 5-HT1A serotonin receptor following a modification of the procedure of Hall et al. J. Neurochem. 44, 1685 (1985) which utilizes CHO cells stably transfected with human 5-HT1A receptors.

[1] = biological target: T2, cloned human 5-HT1A receptors (Homo sapiens, UniProt P08908); assay: 35S-GTPγS binding assay, reversal of the standard agonist 8-OH-DPAT; format: biochemical; conditions: for 5-HT1A Function Imax (maximum inhibitory effect): value in parentheses
T2 construct: expressed in transfected cells
T2 sequence (P08908 1-422): T1 sequence (P08908 1-422)
Description: Antagonist activity at 5-HT1A receptors was established by using a ^35S-GTPγS binding assay similar to that used by Lazareno and Birdsall (Br. J. Pharmacol. 109: 1120, 1993), in which the test compound's ability to affect the binding of ^35S-GTPγS to membranes containing cloned human 5-HT1A receptors was determined. Agonists produce an increase in binding whereas antagonists produce no increase but rather reverse the effects of the standard agonist 8-OH-DPAT. The test compound's maximum inhibitory effect is represented as the Imax, while its potency is defined by the IC50.

[2] = 35S-GTPγS binding, membranes with cloned human 5-HT1A receptors, antagonist potency, read-out: 5-HT1A Function IC50

SMILES | Ki (human 5-HT1A receptors) | melting point | IC50 [1] | 5-HT1A Function Imax (maximum inhibitory effect) ([1]; 35S-GTPγS binding) | IC50 [1, 2]
Cc1nc2ccc3c(c2o1)OC(CN1CCC(C(=O)c2ccc(F)cc2)CC1)CO3 (centres unmarked) [Example 4, (4-Fluorophenyl) (1-[2-methyl-7,8-dihydro-1,6,9-trioxa-3-aza-cyclopenta[a]naphthalen-8-ylmethyl]-4-piperidinyl)methanone] | 202 nM | – | – | – | –
Cc1nc2ccc3c(c2o1)OC(CN1CCCCC1)CO3 (centres unmarked) (as salt: fumarate) [Example 6, 2-Methyl-8-(piperidin-1-ylmethyl)-7,8-dihydro-1,6,9-trioxa-3-aza-cyclopenta[a]naphthalene] | – | 109 to 112 °C | – | – | –
Cc1nc2ccc3c(c2o1)OC(CN1CCC(n2c(=O)[nH]c4ccccc42)CC1)CO3 (centres unmarked) [Example 2, 1-[1-(2-Methyl-7,8-dihydro-1,6,9-trioxa-3-aza-cyclopenta[a]naphthalen-8-ylmethyl)-piperidin-4-yl]-1,3-dihydro-2H-benzimidazol-2-one] | 1 nM | 218 to 220 °C | 2.7 nM | 42.0 | –
Cc1nc2ccc3c(c2o1)OC(CN1CCC2(CC1)C(=O)NCN2c1ccccc1)CO3 (centres unmarked) (as salt: fumarate) [Example 1, 8-(2-Methyl-7,8-dihydro-1,6,9-trioxa-3-aza-cyclopenta[a]naphthalen-8-ylmethyl)-1-phenyl-1,3,8triazaspiro[4.5]decan-4-one] | – | 240 °C | – | – | –
Cc1nc2ccc3c(c2o1)OC(CN1CCC2(CC1)C(=O)NCN2c1ccccc1)CO3 (centres unmarked) [Example 1, 8-(2-Methyl-7,8-dihydro-1,6,9-trioxa-3-aza-cyclopenta[a]naphthalen-8-ylmethyl)-1-phenyl-1,3,8triazaspiro[4.5]decan-4-one] | 0.93 nM | – | – | 60.0 | 1050 nM
Cc1nc2ccc3c(c2o1)O[C@@H](CN1CC=C(c2cccc(C(F)(F)F)c2)CC1)CO3 [Example 5] | 39.4 nM | – | – | 97.0 | 798 nM
Cc1nc2ccc3c(c2o1)OC(CN1CCC(C(=O)c2ccc(F)cc2)CC1)CO3 (centres unmarked) (as salt: fumarate) [Example 4, (4-Fluorophenyl) (1-[2-methyl-7,8-dihydro-1,6,9-trioxa-3-aza-cyclopenta[a]naphthalen-8-ylmethyl]-4-piperidinyl)methanone] | – | 229 to 230 °C | – | – | –
Cc1nc2ccc3c(c2o1)OC(CN1CCC(O)(c2cccc(C(F)(F)F)c2)CC1)CO3 (centres unmarked) [Example 3, 1-(2-Methyl-7,8-dihydro-1,6,9-trioxa-3-aza-cyclopenta[a]naphthalen-8-ylmethyl)-4-[3-(trifluoromethyl)phenyl]-4-piperidinol] | 6.52 nM | 148 to 151 °C | 47 nM | 47.0 (47.0) | –
Cc1nc2ccc3c(c2o1)O[C@@H](CN1CC=C(c2cccc(C(F)(F)F)c2)CC1)CO3 (as salt: fumarate) [Example 5] | – | 170 to 173 °C | – | – | –
Cc1nc2ccc3c(c2o1)OC(CN1CCCCC1)CO3 (centres unmarked) [Example 6, 2-Methyl-8-(piperidin-1-ylmethyl)-7,8-dihydro-1,6,9-trioxa-3-aza-cyclopenta[a]naphthalene] | 173 nM | – | – | – | –

From US6815448B2, “Azaheterocyclylmethyl derivatives of 7,8-dihydro-1,6,9-trioxa-3-aza-cyclopenta[a]naphthalene as 5-HT1A antagonists” (Wyeth, priority 2001, dated 2004)
